From ChEMBL document CHEMBL1201862, “PubChem BioAssay data set” (2004)
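In this assay, cells in 96-well plates receive the compound at five concentrations for 48 hours. Endpoints are linearly interpolated between the surrounding concentrations. Abbreviation: GI50, concentration required for 50% inhibition of growth.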 The source made the active and inactive calls. Rule as the data show it: active = GI50 up to about 1.1 µM and inactive = higher.

Key:
Test in all cases: NCI tumour cell line growth inhibition, 48 h
IGROV-1 = test system: IGROV-1
BT-549 = test system: BT-549
CCRF-CEM = test system: CCRF-CEM
CAKI-1 = test system: CAKI-1
K562 = test system: K562
KM12 = test system: KM12
MDA-N = test system: MDA-N
T47D = test system: T47D
SK-MEL-2 = test system: SK-MEL-2
TK-10 = test system: TK-10
SF-539 = test system: SF-539
RPMI-8226 = test system: RPMI-8226
786-0 = test system: 786-0
M14 = test system: M14
OVCAR-5 = test system: OVCAR-5
NCI-H522 = test system: NCI-H522
SF-268 = test system: SF-268
RXF 393 = test system: RXF 393
NCI-H460 = test system: NCI-H460

Measured: GI50

COC(=O)N/N=C(\c1ccccc1)c1ccc(OC)cc1
inactive: IGROV-1 59.6 µM | BT-549 > 100 µM | CCRF-CEM > 100 µM | CAKI-1 > 100 µM | K562 > 100 µM | KM12 > 100 µM | MDA-N > 100 µM | T47D > 100 µM | SK-MEL-2 > 100 µM | TK-10 > 100 µM | SF-539 > 100 µM | RPMI-8226 > 100 µM | 786-0 > 100 µM | M14 > 100 µM | OVCAR-5 > 100 µM | NCI-H522 > 100 µM | SF-268 > 100 µM | RXF 393 > 100 µM | NCI-H460 > 100 µM

Cc1c2ccncc2c(C)c2c1sc1ccccc12
inactive: IGROV-1 5.94 µM | BT-549 16.7 µM | CCRF-CEM 3.31 µM | CAKI-1 7.45 µM | K562 6.5 µM | KM12 12.1 µM | MDA-N 13.1 µM | T47D 13.1 µM | SK-MEL-2 21 µM | TK-10 16.9 µM | SF-539 6.73 µM | RPMI-8226 6.87 µM | 786-0 4.86 µM | M14 11.6 µM | OVCAR-5 21 µM | NCI-H522 5.41 µM | SF-268 11.3 µM | RXF 393 10 µM | NCI-H460 2.31 µM

Cn1nnnc1SC(F)(F)c1nc2ccccc2o1
inactive: IGROV-1 > 100 µM | BT-549 > 100 µM | CCRF-CEM 25.1 µM | CAKI-1 > 100 µM | K562 > 100 µM | KM12 35.9 µM | MDA-N > 100 µM | T47D > 100 µM | SK-MEL-2 > 100 µM | TK-10 > 100 µM | SF-539 > 100 µM | RPMI-8226 > 100 µM | 786-0 > 100 µM | M14 > 100 µM | OVCAR-5 > 100 µM | NCI-H522 > 100 µM | SF-268 > 100 µM | RXF 393 > 100 µM | NCI-H460 > 100 µM

Nc1cc(-c2ccc(Cl)cc2)nn1-c1nc2ccccc2nc1-c1ccccc1
inactive: IGROV-1 38.3 µM | BT-549 > 100 µM | CCRF-CEM > 100 µM | CAKI-1 > 100 µM | K562 > 100 µM | KM12 > 100 µM | MDA-N > 100 µM | T47D 13.3 µM | SK-MEL-2 59.7 µM | TK-10 77.1 µM | SF-539 95.9 µM | RPMI-8226 37.5 µM | 786-0 39 µM | M14 > 100 µM | OVCAR-5 > 100 µM | NCI-H522 > 100 µM | SF-268 > 100 µM | RXF 393 35 µM | NCI-H460 > 100 µM

CCCC(=O)NC1=C(Cl)C(=O)c2ccccc2C1=O
inactive: IGROV-1 5.07 µM | BT-549 5.43 µM | CCRF-CEM 1.32 µM | CAKI-1 3 µM | K562 2.07 µM | KM12 3.01 µM | MDA-N 4.11 µM | T47D 2.25 µM | SK-MEL-2 2.39 µM | TK-10 4.89 µM | SF-539 2.45 µM | RPMI-8226 1.48 µM | 786-0 4.53 µM | M14 3.13 µM | OVCAR-5 4.59 µM | NCI-H522 1.13 µM | SF-268 6.92 µM | RXF 393 1.15 µM | NCI-H460 3.64 µM

Oc1ccc(Cc2nccc3cc(O)c(O)cc23)cc1O
inactive: IGROV-1 33 µM | BT-549 54.3 µM | CCRF-CEM 17.9 µM | CAKI-1 58.3 µM | K562 26.8 µM | KM12 67.3 µM | MDA-N 58.2 µM | T47D 30.4 µM | SK-MEL-2 49.7 µM | TK-10 32.7 µM | SF-539 40.4 µM | RPMI-8226 27.4 µM | 786-0 32.1 µM | M14 26.6 µM | OVCAR-5 48.9 µM | NCI-H522 30.4 µM | SF-268 51.9 µM | RXF 393 37.6 µM | NCI-H460 29.6 µM

NNC(=S)N/N=C(/C(=O)Nc1ccc(Cl)c(Cl)c1)C(C1OC(=O)c2ccccc21)[N+](=O)[O-] (stereo not given)
inactive: IGROV-1 54.5 µM | BT-549 > 100 µM | CCRF-CEM 52.7 µM | CAKI-1 > 100 µM | K562 > 100 µM | KM12 > 100 µM | MDA-N > 100 µM | T47D > 100 µM | SK-MEL-2 > 100 µM | TK-10 > 100 µM | SF-539 > 100 µM | RPMI-8226 > 100 µM | 786-0 > 100 µM | M14 > 100 µM | OVCAR-5 > 100 µM | NCI-H522 > 100 µM | SF-268 > 100 µM | RXF 393 > 100 µM | NCI-H460 > 100 µM

CC1(C)[N+]([O-])=[N+]([O-])C1(C)O (stereo not given)
inactive: IGROV-1 > 100 µM | BT-549 > 100 µM | CCRF-CEM > 100 µM | CAKI-1 > 100 µM | K562 > 100 µM | KM12 > 100 µM | MDA-N > 100 µM | T47D > 100 µM | SK-MEL-2 > 100 µM | TK-10 > 100 µM | SF-539 > 100 µM | RPMI-8226 > 100 µM | 786-0 > 100 µM | M14 > 100 µM | OVCAR-5 > 100 µM | NCI-H522 > 100 µM | SF-268 > 100 µM | RXF 393 > 100 µM | NCI-H460 > 100 µM

COc1cc(/C=C2\CC3C4CC[C@H]5C[C@@H](O)CC[C@]5(C)C4CC[C@]3(C)C2=O)cc(OC)c1OC (stereo not given in full)
inactive: IGROV-1 36.6 µM | BT-549 24.8 µM | CCRF-CEM 7.36 µM | CAKI-1 9.4 µM | K562 4.68 µM | KM12 9.75 µM | MDA-N 19.9 µM | T47D 3.7 µM | SK-MEL-2 14.9 µM | TK-10 27.6 µM | SF-539 22.6 µM | RPMI-8226 4.17 µM | 786-0 16 µM | M14 17.4 µM | OVCAR-5 27 µM | NCI-H522 7.93 µM | SF-268 24 µM | RXF 393 13.9 µM | NCI-H460 10.7 µM

O=C(O)C(Cc1ccccc1)N1C(=O)c2ccccc2C1=O (stereo not given)
inactive: IGROV-1 > 100 µM | BT-549 > 100 µM | CCRF-CEM 4.01 µM | CAKI-1 > 100 µM | K562 > 100 µM | KM12 > 100 µM | MDA-N > 100 µM | T47D > 100 µM | SK-MEL-2 > 100 µM | TK-10 > 100 µM | SF-539 > 100 µM | RPMI-8226 > 100 µM | 786-0 > 100 µM | M14 > 100 µM | OVCAR-5 > 100 µM | NCI-H522 > 100 µM | SF-268 > 100 µM | RXF 393 > 100 µM | NCI-H460 > 100 µM
